Data reported in publication PMC12198407, “Preclinical and first-in-human of purinostat mesylate, a novel selective HDAC I/IIb inhibitor, in relapsed/refractory multiple myeloma and lymphoma” (Signal Transduction and Targeted Therapy, 2025).
Values joined by “and” are separate entries in the source; they are usually repeats but may differ in a detail not shown here. Equal values may be shown once. Read-outs that look alike come from different tables or passages of the source.

How the values were obtained:
CYP1A2 = assay: CYP induction, cryopreserved human liver cells; type: in vitro ADME; settings: 0.0500, 0.500, 5.00 µM; three donors
[1] = system: 8 MM and 8 lymphoma cell lines; assay: Antiproliferation assay, cell line panel (CCK8); type: cell-based; settings: Homo sapiens; 72 h, all 16 cell lines
Experimental: PM, panobinostat, Pom and DXM were dissolved in DMSO and stored at -20°C freezer. Cells were seeded at a density of 1.0-3.0 × 10^4 cells/well/100 μL in 96-well plates. After overnight incubation, cells were treated with the drug-containing culture medium for 24, 48, or 72 hours, and cell viability was measured using CCK8 (Oriscience, Chengdu, China) at the indicated time points with Biotek Cytation 3 at a wavelength of 450 nm. The IC50 values were calculated using GraphPad Prism 9.4.1, and Calcusyn 2.0 software was employed to calculate the CI values.

r/r MM and r/r lymphoma = assay: Phase I trial NCT05526313, efficacy assessment; type: in vivo, human
Experimental: This open-label, non-randomized, first-in-human phase I dose-escalation two-center trial enrolled adult patients with lymphoma or MM who were refractory or relapsed after ≥1 prior regimen (NCT05526313). All patients provided written informed consent, and the study was conducted in accordance with the principles of the Declaration of Helsinki. PM was administered by 30-min intravenous infusion in a standard 3 + 3 dose escalation design, starting from 1.2, 2.4, 4.0, 6.0, 8.4, 11.2, up to 15 mg/m^2. This trial was conducted in three sequential stages as follows: the first stage as a single dose (day 1), the second stage as multiple doses (day 8, 11, and 15), and the third stage as extended doses (day 1, 4, 8, 11 in 21-day cycles). The decision to proceed to the third stage is based on the patient’s continued benefit from the previous two stages. Patients continued to receive PM until unacceptable toxicity or disease progression. Between August 2020 and August 2022, 11 r/r MM and 18 r/r lymphoma patients were enrolled. The cutoff date for the assessment of safety and efficacy was July 7, 2023. The incidence and severity of adverse events were assessed according to the National Cancer Institute Common Terminology Criteria for Adverse Events (CTCAE 5.0). The efficacy of PM in patients with r/r MM was evaluated according to the standards of the Chinese Multiple Myeloma Diagnosis and Treatment Guidelines (2017 Revised) and the 2016 International Myeloma Working Group (IMWG). Minimal response (MR) (only for the evaluation of r/r MM): serum M protein decreased by 25–49% and 24 h light chain decreased by 50–89%. If soft tissue plasmacytoma exists at baseline, the sum of the product of perpendicular diameters (SPD) of measurable lesions is required to be reduced by ≥50%.[56],[57] The number and size of osteolytic lesions have not increased (compression fractures are allowed). […] Detailed methods for pharmacodynamic studies, safety and tolerability assessments (including the definition of DLT and maximum tolerated dose), and efficacy assessment are provided in Supplementary Methods.
Disease response of patients was measured according to the Chinese Multiple Myeloma Diagnosis and Treatment Guidelines (2017 Revised) and the 2016 International Myeloma Working Group (IMWG) for multiple myeloma or the International Working Group consensus response evaluation criteria in lymphoma (RECIL 2017). Patients need to be evaluated for efficacy after completing the cycle 1 of PM treatment (single and multiple dosing phases, day 25) and every 2 treatment cycles during the extended dosing phase. For r/r multiple myeloma, the efficacy was evaluated by quantification of M protein immunofixation electrophoresis of serum and urine. For r/r lymphoma, if sites with available positron emission tomography (PET) imaging, tumor volume was quantified by PET computed tomography (CT), and if sites where PET was not available, CT or magnetic resonance imaging was used. Objective response rate (ORR)=CR+PR+MR, and disease control rate (DCR)=CR+PR+MR+SD, and calculate their 95% confidence interval using the Clopper-Pearson method. The efficacy assessable population was determined to include all patients who were administered at least one dose of PM and had undergone at least one tumor assessment after the baseline.

[2] = system: human multiple myeloma RPMI-8226; type: in vivo
[3] = Pharmacokinetics, intravenous; type: in vivo, SD rats; settings: for AUC(0-t) / half-life / Vd / clearance / C0: both sexes, SD, rat, plasma, iv; for Vd: read-out: Vdss; for clearance: read-out: plasma clearance (CL); for increase in AUC0-last for tenfold increase in dose: 1 to 10 mg/kg
Experimental: After a single intravenous injection of Purinostat Mesylate at doses of 1, 3, and 10 mg/kg, the average initial concentrations (C0) in male and female SD rats were 736 ± 66.5, 2880 ± 566, and 11500 ± 1790 ng/mL, respectively. […] The half-lives (T1/2) were 3.79 ± 0.511, 4.21 ± 0.248, and 6.24 ± 1.57 min, respectively. The area under the curve (AUC0-last) values were 55.3 ± 3.68, 248 ± 36.1, and 1280 ± 122 ng.h/mL, respectively. After daily intravenous injections of 3 mg/kg Purinostat Mesylate for 7 consecutive days, the average AUC0-last on day 7 for both male and female rats was 332 ± 43.6 ng.h/mL.

[4] = by row: r4 MM, r5 DLBCL, r6 FL, r7 other lymphomas, r8 total

SMILES: CN(Cc1nc2c(N3CCOCC3)nc(-c3ccc(N)cc3)nc2n1C)c1ncc(C(=O)NO)cn1.CS(=O)(=O)O [PM, 2-(((2-(4-Aminophenyl)-9-methyl-6-(4-morpholinyl)-9H-purine-8-yl)methyl)methylamino)-N-hydroxy-5-pyrimidine-carboxamide Mesylate]
- induction of CYP1A2 (CYP1A2): did not act as an inducer
- IC50 [1]: < 5 nM
- DCR (r/r MM and r/r lymphoma; DLBCL, n=11): 72.7%
- duration of PR (r/r MM and r/r lymphoma; FL patient with multiple extranodal lesions): more than 10 cycles
- DCR (r/r MM and r/r lymphoma; FL, n=3): 66.7%
- ORR (r/r MM and r/r lymphoma; FL, n=3): 66.7%
- duration of MR (r/r MM and r/r lymphoma; Patient No.10, 6.0 mg/m²): more than 6 months
- M-protein after 2 cycles (r/r MM and r/r lymphoma; Patient No.10, 6.0 mg/m², baseline 26.290 g/L): 15.998 g/L
- Best Response CR (r/r MM and r/r lymphoma; [4]): 6(54.5) n (%) and 6(20.7) n (%)
- Best Response MR (r/r MM and r/r lymphoma; [4]): 1(33.3) n (%)
- Best Response PD (r/r MM and r/r lymphoma; [4]): 1(33.3) n (%)
- Best Response PR (r/r MM and r/r lymphoma; [4]): 1(33.3) n (%)
- Best Response SD (r/r MM and r/r lymphoma; [4]): 10(34.5) n (%)
- DCR (r/r MM and r/r lymphoma; other lymphomas, n=4): 100%
- ORR (r/r MM and r/r lymphoma; other lymphomas, n=4): 50.0%
- duration of CR (r/r MM and r/r lymphoma; r/r DEL DLBCL patient with MYD88 mutation): over 18 months
- duration of CR (r/r MM and r/r lymphoma; r/r DEL patient No.26): more than 1.5 years
- Response (%): CR (r/r MM and r/r lymphoma; r/r DLBCL): 54.5%
- ORR (r/r MM and r/r lymphoma; r/r DLBCL, n=11): 63.6%
- number of complete responses (r/r MM and r/r lymphoma; r/r DLBCL, n=11): 6
- number of partial responses (r/r MM and r/r lymphoma; r/r DLBCL, n=11): 1
- DCR (r/r MM and r/r lymphoma; r/r MM, n=11): 72.7%
- ORR (r/r MM and r/r lymphoma; r/r MM, n=11, 1.2–8.4 mg/m^2): 9.1% and 9.09%
- ORR (r/r MM and r/r lymphoma; r/r lymphoma, n=18, 4.0–15.0 mg/m^2): 61.1%
- DCR (r/r MM and r/r lymphoma; total, n=29): 75.9%
- ORR (r/r MM and r/r lymphoma; total, n=29): 41.4%
- T/C ([2]; 1.25 mg/kg): 13.9%
- tumor inhibition rate ([2]; 1.25 mg/kg): 81.61%
- T/C ([2]; 2.5 mg/kg): 6.6%
- tumor inhibition rate ([2]; 2.5 mg/kg): 92.33%
- T/C ([2]; 5 mg/kg): 2.7%
- tumor inhibition rate ([2]; 5 mg/kg): 97.77%
- T/C ([2]; 10 mg/kg): 2.2%
- tumor inhibition rate ([2]; 10 mg/kg): 97.77%
- median survival time ([2]; satellite groups, PM 5 mg/kg alone or combined, control regimens): 67.5 days
- AUC(0-t) ([3]; 1 mg/kg, read-out: AUC0-last): 0.0553 ± 0.00368 µg·h/mL
- half-life ([3]; 1 mg/kg, read-out: T1/2): 3.79 ± 0.511 min
- Vd ([3]; 1 mg/kg): 1.43 ± 0.135 L/kg
- clearance ([3]; 1 mg/kg): 18.1 ± 1.2 L/h/kg
- AUC(0-t) ([3]; 3 mg/kg, 3 mg/kg daily i.v. for 7 days, read-out: AUC0-last on day 7): 0.332 ± 0.0436 µg·h/mL
- AUC(0-t) ([3]; 3 mg/kg, read-out: AUC0-last): 0.248 ± 0.0361 µg·h/mL
- half-life ([3]; 3 mg/kg, read-out: T1/2): 4.21 ± 0.248 min
- Vd ([3]; 3 mg/kg): 1.13 ± 0.241 L/kg
- clearance ([3]; 3 mg/kg): 12.3 ± 2.18 L/h/kg
- AUC(0-t) ([3]; 10 mg/kg, read-out: AUC0-last): 1.28 ± 0.122 µg·h/mL
- half-life ([3]; 10 mg/kg, read-out: T1/2): 6.24 ± 1.57 min
- Vd ([3]; 10 mg/kg): 0.948 ± 0.125 L/kg
- clearance ([3]; 10 mg/kg): 7.86 ± 0.768 L/h/kg
- C0 ([3]; 1 mg/kg single i.v.): 0.736 ± 0.0665 µg/mL
- C0 ([3]; 3 mg/kg single i.v.): 2.88 ± 0.566 µg/mL
- C0 ([3]; 10 mg/kg single i.v.): 11.5 ± 1.79 µg/mL
- half-life ([3]; single i.v., range over doses, read-out: half-life): 3.79 to 6.24 min
- increase in AUC0-last for tenfold increase in dose ([3]; female rats): 24.4 fold
- increase in AUC0-last for tenfold increase in dose ([3]; male rats): 21.7 fold
